Measured values reported in ChEMBL document CHEMBL1156891, “Pyrrolidine amides of pyrazolodihydropyrimidines as potent and selective KV1.5 blockers” (Bioorg Med Chem Lett, 2010).
pIC50: −log10 of the molar value.

What was measured:
[1] = molecular target: Potassium voltage-gated channel subfamily A member 5 (Homo sapiens, UniProt P22460); test: Inhibition of human Kv1.5 channel expressed in mouse L929 cells; assay type: cell-based; set-up: concentration or dose not given beside the values; details: for inhibition: concentration not given here
Oryctolagus cuniculus [2] = test: Prolongation of atrial effective refractory period in rabbit at 0.3 mg/kg, iv relative to vehicle control; assay type: functional, Cardiac atrium
Oryctolagus cuniculus [3] = test: Prolongation of atrial effective refractory period in rabbit at 1 mg/kg, iv relative to vehicle control; assay type: functional, Cardiac atrium
Oryctolagus cuniculus [4] = test: Prolongation of atrial effective refractory period in rabbit at 3 mg/kg, iv relative to vehicle control; assay type: functional, Cardiac atrium
Oryctolagus cuniculus [5] = test: Prolongation of atrial effective refractory period in rabbit at 10 mg/kg, iv relative to vehicle control; assay type: functional, Cardiac atrium
Oryctolagus cuniculus [6] = test: Plasma concentration in rabbit at 10 mg/kg, iv; assay type: ADME, organism-based; set-up: dose 10 mg/kg, route intravenous; details: in vivo
[7] = Fraction unbound in rabbit plasma at 10 mg/kg, iv; assay type: ADME, organism-based, Oryctolagus cuniculus; set-up: dose 10 mg/kg, route intravenous
[8] = Oral bioavailability in rat at 20 µmol/kg, po; details: in vivo
[9] = Oral bioavailability in dog at 20 µmol/kg, po; details: in vivo
[10] = Clearance in rat at 10 µmol/kg, intra-arterial infusion; details: in vivo
[11] = Clearance in dog at 10 µmol/kg, intra-arterial infusion; details: in vivo
[12] = Terminal half life in rat at 10 µmol/kg, intra-arterial infusion; details: in vivo, read-out: beta t1/2 (converted)
[13] = Terminal half life in dog at 10 µmol/kg, intra-arterial infusion; details: in vivo, read-out: beta t1/2 (converted)
[14] = Volume of distribution at steady state in rat at 10 µmol/kg, intra-arterial infusion; details: in vivo, read-out: Vdss
[15] = Volume of distribution at steady state in dog at 10 µmol/kg, intra-arterial infusion; details: in vivo, read-out: Vdss

Sequence of Potassium voltage-gated channel subfamily A member 5 (P22460 whole entry): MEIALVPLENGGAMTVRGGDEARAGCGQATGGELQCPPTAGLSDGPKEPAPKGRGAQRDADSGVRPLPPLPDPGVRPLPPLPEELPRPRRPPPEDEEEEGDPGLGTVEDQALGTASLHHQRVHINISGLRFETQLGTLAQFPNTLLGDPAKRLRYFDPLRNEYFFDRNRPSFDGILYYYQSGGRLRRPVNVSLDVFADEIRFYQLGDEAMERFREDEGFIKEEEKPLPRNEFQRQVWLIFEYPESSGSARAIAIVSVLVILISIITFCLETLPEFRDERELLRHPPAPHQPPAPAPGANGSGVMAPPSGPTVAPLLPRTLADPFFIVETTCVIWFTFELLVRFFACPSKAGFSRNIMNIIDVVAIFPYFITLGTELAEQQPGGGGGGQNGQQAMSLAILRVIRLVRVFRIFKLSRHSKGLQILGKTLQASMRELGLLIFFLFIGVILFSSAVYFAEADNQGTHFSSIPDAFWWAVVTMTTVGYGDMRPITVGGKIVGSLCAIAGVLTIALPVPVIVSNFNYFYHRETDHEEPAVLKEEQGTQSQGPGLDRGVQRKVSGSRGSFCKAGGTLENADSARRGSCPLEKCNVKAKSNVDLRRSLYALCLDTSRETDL

inhibition [1] | pIC50 [1] | SMILES | other results
38% |  | CC1=C(C(=O)N2CCC[C@H]2c2cc(C)on2)C(c2ccc(Cl)c(Cl)c2)n2nccc2N1 (stereo in doubt; 21a) [listing 1 of 2 here] | 
 | 6.82 | CC1=C(C(=O)N2CCCC2c2ccccc2)C(c2ccc(Cl)c(Cl)c2)n2nccc2N1 (centres undefined) | 
 | < 6.00 | CC1=C(C(=O)N2CCC[C@H]2c2cc(C)no2)C(c2ccc(Cl)c(Cl)c2)n2nccc2N1 (stereo in doubt; 20a) [listing 1 of 2 here] | 
 | 7.30 | CC1=C(C(=O)N2CCC[C@H]2c2ccc(F)cc2)[C@@H](c2ccc(Cl)c(Cl)c2)n2nccc2N1 [BMS-394136] | Activity (Oryctolagus cuniculus [2]): 0.13%; Activity (Oryctolagus cuniculus [3]): 0.37%; Activity (Oryctolagus cuniculus [4]): 1.37%; Activity (Oryctolagus cuniculus [5]): 6.95%; concentration (Oryctolagus cuniculus [6]): 7 µM; fraction unbound [7]: 0.03; bioavailability [8]: 51%; bioavailability [9]: 37%; clearance [10]: 35 mL/min/kg; clearance [11]: 42 mL/min/kg; half-life [12]: 0.57 h; half-life [13]: 1.5 h; Vd [14]: 1.6 L/kg; Vd [15]: 2.1 L/kg
 | < 6.00 | CC1=C(C(=O)N2CCC[C@H]2c2nnc[nH]2)C(c2ccc(Cl)c(Cl)c2)n2nccc2N1 (stereo in doubt; 17a) [listing 1 of 2 here] | 
 | 5.74 | CC1=C(C(=O)N2CCCC2c2ccc(F)cc2)C(c2ccc(Cl)c(Cl)c2)n2nccc2N1 (mixture of isomers; 7b) | 
 | 5.68 | CC1=C(C(=O)N2CCCC2c2ccc(F)cc2)C(c2ccc(Cl)c(Cl)c2)n2nccc2N1 (mixture of isomers; 7a) | 
 | 7.15 | CC1=C(C(=O)N2CCCC2c2ccc(F)cc2)C(c2ccc(Cl)c(Cl)c2)n2nccc2N1 (mixture of isomers; 7) | 
19% |  | CC1=C(C(=O)N2CCC[C@H]2c2nnc[nH]2)C(c2ccc(Cl)c(Cl)c2)n2nccc2N1 (stereo in doubt; 17a) [listing 2 of 2 here] | 
 | 7.05 | CC1=C(C(=O)N2CCC[C@H]2c2cc(C)on2)C(c2ccc(Cl)c(Cl)c2)n2nccc2N1 (stereo in doubt; 21b) | 
 | 6.96 | CC1=C(C(=O)N2CCC[C@H]2c2cc(C)no2)C(c2ccc(Cl)c(Cl)c2)n2nccc2N1 (stereo in doubt; 20b) | 
 | 6.51 | CC1=C(C(=O)N2CCCC2c2ccncc2)C(c2ccc(Cl)c(Cl)c2)n2nccc2N1 (centres undefined) | 
 | 6.18 | CC1=C(C(=O)N2CCCC2c2ccccn2)C(c2ccc(Cl)c(Cl)c2)n2nccc2N1 (centres undefined) | 
21% |  | CC1=C(C(=O)N2CCC[C@H]2c2cc(C)no2)C(c2ccc(Cl)c(Cl)c2)n2nccc2N1 (stereo in doubt; 20a) [listing 2 of 2 here] | 
 | 6.82 | CC1=C(C(=O)N2CCCC2c2ccc(F)cc2)C(c2ccc(Cl)c(Cl)c2)n2nccc2N1 (mixture of isomers; 7c) | 
 | < 6.00 | CC1=C(C(=O)N2CCC[C@H]2c2cc(C)on2)C(c2ccc(Cl)c(Cl)c2)n2nccc2N1 (stereo in doubt; 21a) [listing 2 of 2 here] | 
4% |  | CC1=C(C(=O)N2CCC[C@H]2c2nnn[nH]2)C(c2ccc(Cl)c(Cl)c2)n2nccc2N1 (stereo in doubt; 14a) [listing 2 of 2 here] | 
3% |  | CC1=C(C(=O)N2CCC[C@H]2c2nnc[nH]2)C(c2ccc(Cl)c(Cl)c2)n2nccc2N1 (stereo in doubt; 17b) | 

Continued, compound first:

SMILES | inhibition [1] | pIC50 [1] | other results
CC1=C(C(=O)N2CCC[C@H]2c2nc(C)no2)C(c2ccc(Cl)c(Cl)c2)n2nccc2N1 (stereo in doubt; 13a) [listing 1 of 2 here] | 22% |  | 
CC1=C(C(=O)N2CCC[C@H]2c2nnn(C)n2)C(c2ccc(Cl)c(Cl)c2)n2nccc2N1 (some centres undefined) |  | 6.32 | 
COC(=O)[C@@H]1CCCN1C(=O)C1=C(C)Nc2ccnn2C1c1ccc(Cl)c(Cl)c1 (some centres undefined) |  | 6.82 | 
CC1=C(C(=O)N2CCCC2c2cccnc2)C(c2ccc(Cl)c(Cl)c2)n2nccc2N1 (centres undefined) | 35% | < 6.00 | 
CC1=C(C(=O)N2CCC[C@H]2c2nnn[nH]2)C(c2ccc(Cl)c(Cl)c2)n2nccc2N1 (stereo in doubt; 14b) | 8% |  | 
COC[C@H]1CCCN1C(=O)C1=C(C)Nc2ccnn2C1c1ccc(Cl)c(Cl)c1 (some centres undefined) | 32% | < 6.00 | 
CC1=C(C(=O)N2CCC[C@H]2c2nc(C)no2)C(c2ccc(Cl)c(Cl)c2)n2nccc2N1 (stereo in doubt; 13b) |  | 6.80 | 
CC1=C(C(=O)N2CCC[C@H]2c2nc(C)c(C)s2)C(c2ccc(Cl)c(Cl)c2)n2nccc2N1 (some centres undefined) |  | 6.52 | 
CC1=C(C(=O)N2CCC[C@H]2c2nc(C)no2)C(c2ccc(Cl)c(Cl)c2)n2nccc2N1 (stereo in doubt; 13a) [listing 2 of 2 here] |  | < 6.00 | 
CC1=C(C(=O)N2CCC[C@H]2c2nnn[nH]2)C(c2ccc(Cl)c(Cl)c2)n2nccc2N1 (stereo in doubt; 14a) [listing 1 of 2 here] |  | < 6.00 | 
CC1=C(C(=O)N2CCC[C@H]2c2n[nH]c(=O)n2C)C(c2ccc(Cl)c(Cl)c2)n2nccc2N1 (some centres undefined) | 11% | < 6.00 | 
CC1=C(C(=O)N2CCC(c3ccc(F)cc3)C2)C(c2ccc(Cl)c(Cl)c2)n2nccc2N1 (centres undefined) |  | 6.80 | 
CC1=C(C(=O)N2CCC[C@H]2c2nnc(N)s2)C(c2ccc(Cl)c(Cl)c2)n2nccc2N1 (some centres undefined) | 4% | < 6.00 | 
